Test results from ChEMBL document CHEMBL3739283, “Synthesis and biological evaluation of potential small moleculeinhibitors of tumor necrosis factor” (Medchemcomm, 2015).

Tests used:
Tumor necrosis factor [1] = target: T1, Tumor necrosis factor (Homo sapiens, UniProt P01375); test: Binding affinity to human GST-tagged TNF extracellular domain expressed in Escherichia coli BL21(DE3)pLysS cells by fluorescence spectrophotometric analysis
Tumor necrosis factor [2] = target: T1, Tumor necrosis factor; test: Inhibition of human TNF assessed as reduction in TNF-induced cell death of actinomycin D activated mouse L929 cells preincubated for 30 mins followed by cell addition measured after 18 to 24 hrs by crystal violet staining based spectrophotometric analysis
Tumor necrosis factor [3] = target: T1, Tumor necrosis factor; test: Binding affinity to recombinant human TNF assessed as inhibition of TNF-TNFR1 interaction incubated for 1 hr by ELISA

T1 sequence (P01375 whole entry, the tested form may be a part): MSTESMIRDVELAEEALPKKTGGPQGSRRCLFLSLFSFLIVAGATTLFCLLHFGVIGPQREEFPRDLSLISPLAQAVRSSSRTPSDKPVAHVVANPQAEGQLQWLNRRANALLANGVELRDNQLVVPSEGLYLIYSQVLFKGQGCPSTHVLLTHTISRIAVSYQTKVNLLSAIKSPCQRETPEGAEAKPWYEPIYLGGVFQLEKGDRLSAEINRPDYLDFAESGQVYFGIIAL

## O=C(c1coc2ccccc2c1=O)N1CCN(Cc2cn(-c3cccc(C(F)(F)F)c3)c3ccc([N+](=O)[O-])cc23)CC1
Tumor necrosis factor [1]
  Kd: Not Active
Tumor necrosis factor [2]
  IC50: Not Active

## O=C(c1coc2ccccc2c1=O)N1CCN(C(=O)c2cn(-c3cccc(C(F)(F)F)c3)c3ccc([N+](=O)[O-])cc23)CC1
Tumor necrosis factor [1]
  Kd: Not Active
Tumor necrosis factor [2]
  IC50: Not Active

## O=C(c1ccccc1)N1CCN(C(=O)c2cn(-c3cccc(C(F)(F)F)c3)c3ccccc23)CC1
Tumor necrosis factor [1]; read-out: Kd
  Kd: 15.2 µM
Tumor necrosis factor [2]
  IC50: Not Active

## Cc1ccc2occ(CN(C)CCN(C)Cc3cn(-c4cccc(C(F)(F)F)c4)c4ccccc34)c(=O)c2c1
Tumor necrosis factor [1]; read-out: Kd
  Kd: 18.6 µM
Tumor necrosis factor [3]
  IC50: 10 µM

## CN(CCN(C)C(=O)c1cn(S(=O)(=O)c2cccc(N)c2)c2ccccc12)C(=O)c1coc2ccccc2c1=O
Tumor necrosis factor [1]; read-out: Kd
  Kd: 0.95 µM
Tumor necrosis factor [3]
  IC50: 20 µM

## O=C(c1coc2ccccc2c1=O)N1CCN(C(=O)c2cn(-c3cccc([N+](=O)[O-])c3)c3ccc([N+](=O)[O-])cc23)CC1
Tumor necrosis factor [1]; read-out: Kd
  Kd: 0.74 µM
Tumor necrosis factor [3]
  IC50: 20 µM

## O=C(NCCCNC(=O)c1cn(S(=O)(=O)c2ccccc2)c2ccccc12)c1ccccc1
Tumor necrosis factor [1]
  Kd: Not Active
Tumor necrosis factor [2]
  IC50: Not Active

## O=C(NCCCCNC(=O)c1cn(S(=O)(=O)c2ccccc2)c2ccccc12)c1ccc2ccccc2c1
Tumor necrosis factor [1]; read-out: Kd
  Kd: 18.7 µM
Tumor necrosis factor [2]
  IC50: Not Active

## Nc1cccc(S(=O)(=O)n2cc(C(=O)N3CCN(C(=O)c4coc5ccccc5c4=O)CC3)c3ccccc32)c1
Tumor necrosis factor [1]; read-out: Kd
  Kd: 5.45 µM
Tumor necrosis factor [3]
  IC50: 40 µM

## O=C(c1ccccc1F)N1CCN(C(=O)c2c[nH]c3ccc([N+](=O)[O-])cc23)CC1
Tumor necrosis factor [1]; read-out: Kd
  Kd: 17.9 µM
Tumor necrosis factor [2]
  IC50: Not Active

## CN(CCN(C)C(=O)c1cn(-c2cccc(N)c2)c2ccccc12)C(=O)c1coc2ccccc2c1=O
Tumor necrosis factor [1]; read-out: Kd
  Kd: 35.2 µM
Tumor necrosis factor [2]
  IC50: Not Active

## O=C(NCCCNC(=O)c1cn(S(=O)(=O)c2ccccc2)c2ccccc12)c1coc2ccccc2c1=O
Tumor necrosis factor [1]; read-out: Kd
  Kd: 5.2 µM
Tumor necrosis factor [3]
  IC50: 40 µM

## CN(CCN(C)C(=O)c1cn(S(=O)(=O)c2ccccc2)c2ccccc12)C(=O)c1ccccc1
Tumor necrosis factor [1]; read-out: Kd
  Kd: 17.3 µM
Tumor necrosis factor [2]
  IC50: Not Active

## CN(CCN(C)C(=O)c1cn(S(=O)(=O)c2ccccc2)c2ccccc12)C(=O)c1ccccc1F
Tumor necrosis factor [1]
  Kd: Not Active
Tumor necrosis factor [2]
  IC50: Not Active

## O=C(c1coc2ccccc2c1=O)N1CCN(C(=O)c2cn(S(=O)(=O)c3ccccc3)c3ccccc23)CC1
Tumor necrosis factor [1]; read-out: Kd
  Kd: 12.8 µM
Tumor necrosis factor [3]
  IC50: 40 µM

## CN(CCN(C)C(=O)c1cn(-c2cccc(C(F)(F)F)c2)c2ccc([N+](=O)[O-])cc12)C(=O)c1ccccc1F
Tumor necrosis factor [1]; read-out: Kd
  Kd: 10.3 µM
Tumor necrosis factor [2]
  IC50: Not Active

## O=C(c1ccc2ccccc2c1)N1CCN(C(=O)c2cn(-c3cccc(C(F)(F)F)c3)c3ccccc23)CC1
Tumor necrosis factor [1]
  Kd: Not Active
Tumor necrosis factor [2]
  IC50: Not Active

## CN(CCN(C)C(=O)n1ccnc1)C(=O)c1cn(S(=O)(=O)c2ccccc2)c2ccccc12
Tumor necrosis factor [1]
  Kd: Not Active
Tumor necrosis factor [2]
  IC50: Not Active

## O=C(c1ccc2ccccc2c1)N1CCN(C(=O)c2cn(S(=O)(=O)c3ccccc3)c3ccccc23)CC1
Tumor necrosis factor [1]
  Kd: Not Active
Tumor necrosis factor [2]
  IC50: Not Active

## Nc1cccc(-n2cc(C(=O)N3CCN(C(=O)c4coc5ccccc5c4=O)CC3)c3ccccc32)c1
Tumor necrosis factor [1]; read-out: Kd
  Kd: 14.1 µM
Tumor necrosis factor [3]
  IC50: 20 µM

## Nc1cccc(-n2cc(C(=O)N3CCN(C(=O)C4COc5ccccc5C4=O)CC3)c3cc(N)ccc32)c1 (configuration not stated)
Tumor necrosis factor [1]
  Kd: Not Active
Tumor necrosis factor [2]
  IC50: Not Active

## O=C(c1coc2ccccc2c1=O)N1CCN(C(=O)c2cn(-c3cccc([N+](=O)[O-])c3)c3ccccc23)CC1
Tumor necrosis factor [1]; read-out: Kd
  Kd: 25.4 µM
Tumor necrosis factor [2]
  IC50: Not Active

## O=C(c1ccccc1)N1CCN(Cc2cn(-c3cccc(C(F)(F)F)c3)c3ccccc23)CC1
Tumor necrosis factor [1]; read-out: Kd
  Kd: 2.14 µM
Tumor necrosis factor [3]
  IC50: 20 µM

## Cc1ccc2occ(CN3CCN(Cc4cn(-c5cccc(C(F)(F)F)c5)c5ccccc45)CC3)c(=O)c2c1
Tumor necrosis factor [1]; read-out: Kd
  Kd: 4.78 µM
Tumor necrosis factor [3]
  IC50: 15 µM

## CN(CCN(C)C(=O)c1cn(S(=O)(=O)c2cccc([N+](=O)[O-])c2)c2ccccc12)C(=O)c1coc2ccccc2c1=O
Tumor necrosis factor [1]; read-out: Kd
  Kd: 3.16 µM
Tumor necrosis factor [3]
  IC50: 40 µM

## Nc1cccc(-n2cc(C(=O)N3CCN(C(=O)c4coc5ccccc5c4=O)CC3)c3cc(N)ccc32)c1
Tumor necrosis factor [1]; read-out: Kd
  Kd: 15.6 µM
Tumor necrosis factor [3]
  IC50: 40 µM

## CN(CCN(C)C(=O)c1cn(S(=O)(=O)c2ccccc2)c2ccccc12)C(=O)c1ccc2ccccc2c1
Tumor necrosis factor [1]; read-out: Kd
  Kd: 25 µM
Tumor necrosis factor [2]
  IC50: Not Active

## O=C(c1ccc2ccccc2c1)N1CCN(Cc2cn(-c3cccc(C(F)(F)F)c3)c3ccc([N+](=O)[O-])cc23)CC1
Tumor necrosis factor [1]
  Kd: Not Active
Tumor necrosis factor [2]
  IC50: Not Active

## O=C(c1cn(-c2cccc(C(F)(F)F)c2)c2ccccc12)N1CCN(C(=O)n2ccnc2)CC1
Tumor necrosis factor [1]; read-out: Kd
  Kd: > 35 µM
Tumor necrosis factor [2]
  IC50: Not Active

## CN(CCN(C)C(=O)c1cn(S(=O)(=O)c2ccccc2)c2ccccc12)C(=O)c1coc2ccccc2c1=O
Tumor necrosis factor [1]; read-out: Kd
  Kd: 7 µM
Tumor necrosis factor [3]
  IC50: > 60 µM

## Cc1cc2occ(CN3CCN(Cc4cn(-c5cccc(C(F)(F)F)c5)c5ccccc45)CC3)c(=O)c2cc1C
Tumor necrosis factor [1]; read-out: Kd
  Kd: 10.1 µM
Tumor necrosis factor [3]
  IC50: 15 µM

## Cc1cc2occ(C(=O)N3CCN(C(=O)c4cn(-c5cccc(C(F)(F)F)c5)c5ccccc45)CC3)c(=O)c2cc1C
Tumor necrosis factor [1]; read-out: Kd
  Kd: 5.12 µM
Tumor necrosis factor [2]
  IC50: Not Active

## CN(CCN(C)C(=O)c1cn(S(=O)(=O)c2ccccc2)c2ccccc12)C(=O)c1cccs1
Tumor necrosis factor [1]; read-out: Kd
  Kd: 8.22 µM
Tumor necrosis factor [2]
  IC50: Not Active

## O=C(c1coc2ccccc2c1=O)N1CCN(Cc2cn(-c3cccc(C(F)(F)F)c3)c3ccccc23)CC1
Tumor necrosis factor [1]; read-out: Kd
  Kd: 1.61 µM
Tumor necrosis factor [3]
  IC50: 20 µM

## O=C(NCCNC(=O)c1cn(S(=O)(=O)c2ccccc2)c2ccccc12)c1ccc2ccccc2c1
Tumor necrosis factor [1]; read-out: Kd
  Kd: > 35 µM
Tumor necrosis factor [2]
  IC50: Not Active

## O=C(c1ccc2ccccc2c1)N1CCN(Cc2cn(-c3cccc(C(F)(F)F)c3)c3ccccc23)CC1
Tumor necrosis factor [1]; read-out: Kd
  Kd: 7.82 µM
Tumor necrosis factor [3]
  IC50: 40 µM

## O=C(c1coc2ccccc2c1=O)N1CCN(C(=O)c2cn(S(=O)(=O)c3cccc([N+](=O)[O-])c3)c3ccccc23)CC1
Tumor necrosis factor [1]; read-out: Kd
  Kd: 16.8 µM
Tumor necrosis factor [3]
  IC50: 40 µM

## O=C(c1cccs1)N1CCN(C(=O)c2c[nH]c3ccc([N+](=O)[O-])cc23)CC1
Tumor necrosis factor [1]; read-out: Kd
  Kd: 10.7 µM
Tumor necrosis factor [2]
  IC50: Not Active

## Cc1cc2occ(C(=O)N(C)CCN(C)C(=O)c3cn(-c4cccc(C(F)(F)F)c4)c4ccccc34)c(=O)c2cc1C
Tumor necrosis factor [1]; read-out: Kd
  Kd: 2.51 µM
Tumor necrosis factor [3]
  IC50: > 60 µM

## CN(CCN(C)C(=O)c1cn(-c2cccc(C(F)(F)F)c2)c2ccc([N+](=O)[O-])cc12)C(=O)c1coc2ccccc2c1=O
Tumor necrosis factor [1]; read-out: Kd
  Kd: 13.3 µM
Tumor necrosis factor [2]
  IC50: Not Active

## CN(CCN(C)C(=O)c1cn(-c2cccc([N+](=O)[O-])c2)c2ccccc12)C(=O)c1coc2ccccc2c1=O
Tumor necrosis factor [1]; read-out: Kd
  Kd: 12.2 µM
Tumor necrosis factor [2]
  IC50: Not Active
